Assay results published in ChEMBL document CHEMBL1201861, “Genomics of Drug Sensitity in Cancer screening data, Wellcome Trust Sanger Institute”.

Tests used:
Assay in all cases: cells
OMC-1 = format: functional, cell-based, Homo sapiens; details: Homo sapiens, OMC-1;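 also: growth inhibition of the OMC-1 cell line, measured by a cell viability assay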
Description: SANGER: Inhibition of human OMC-1 cell growth in a cell viability assay.

NCI-H1304 = format: functional, cell-based, Homo sapiens; details: Homo sapiens, NCI-H1304;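 also: growth inhibition of the cancer cell line, measured in a cell viability assay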
Description: SANGER: Inhibition of human NCI-H1304 cell growth in a cell viability assay.

ES5 = format: functional, cell-based, Homo sapiens; details: Homo sapiens, ES5;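 also: growth inhibition of human ES5 cells, read out by a cell viability assay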
Description: SANGER: Inhibition of human ES5 cell growth in a cell viability assay.

NCI-H2126 = format: functional, cell-based, Homo sapiens; details: Homo sapiens, NCI-H2126;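 also: growth inhibition of the cancer cell line, determined with a cell viability readout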
Description: SANGER: Inhibition of human NCI-H2126 cell growth in a cell viability assay.

RH-1 = format: functional, cell-based, Homo sapiens; details: Homo sapiens, RH-1;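 also: growth inhibition of human RH-1 cells, read out with a cell viability assay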
Description: SANGER: Inhibition of human RH-1 cell growth in a cell viability assay.

MS-1 = format: functional, cell-based, Homo sapiens; details: Homo sapiens, MS-1;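 also: growth inhibition of MS-1 cells, read out by cell viability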
Description: SANGER: Inhibition of human MS-1 cell growth in a cell viability assay.

KM-H2 = format: functional, cell-based, Homo sapiens; details: Homo sapiens, KM-H2;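 also: growth inhibition of KM-H2 cells, read out by a cell viability assay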
Description: SANGER: Inhibition of human KM-H2 cell growth in a cell viability assay.

SNU-5 = format: functional, cell-based, Homo sapiens; details: Homo sapiens, SNU-5;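 also: cell viability readout used to measure growth inhibition in human NCI-SNU-5 cells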
Description: SANGER: Inhibition of human NCI-SNU-5 cell growth in a cell viability assay.

HCC2218 = format: functional, cell-based, Homo sapiens; details: Homo sapiens, HCC2218;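 also: cell viability assay read-out, with IC50 given as the concentration that inhibits growth of the cell line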
Description: SANGER: Inhibition of human HCC2218 cell growth in a cell viability assay.

Becker = format: functional, cell-based, Homo sapiens; details: Homo sapiens, Becker;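 also: growth inhibition of Becker cells, read out with a cell viability assay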
Description: SANGER: Inhibition of human Becker cell growth in a cell viability assay.

CTV-1 = format: functional, cell-based, Homo sapiens; details: Homo sapiens, CTV-1;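 also: growth inhibition of the cell line, read out with a cell viability assay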
Description: SANGER: Inhibition of human CTV-1 cell growth in a cell viability assay.

NB69 = format: functional, cell-based, Homo sapiens; details: Homo sapiens, NB69;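 also: growth inhibition of NB69 cells, determined by a cell viability assay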
Description: SANGER: Inhibition of human NB69 cell growth in a cell viability assay.

NCI-H1648 = format: functional, cell-based, Homo sapiens; details: Homo sapiens, NCI-H1648;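 also: cell viability assay measuring inhibition of NCI-H1648 cell growth, from the Sanger screening data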
Description: SANGER: Inhibition of human NCI-H1648 cell growth in a cell viability assay.

COLO-824 = format: functional, cell-based, Homo sapiens; details: Homo sapiens, COLO-824
Description: SANGER: Inhibition of human COLO-824 cell growth in a cell viability assay.

ALL-PO = format: functional, cell-based, Homo sapiens; details: Homo sapiens, ALL-PO;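 also: growth inhibition of ALL-PO cells, read out by a cell viability assay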
Description: SANGER: Inhibition of human ALL-PO cell growth in a cell viability assay.

SCH = format: functional, cell-based, Homo sapiens; details: Homo sapiens, SCH;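 also: growth inhibition of human SCH cells, read out in a cell viability assay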
Description: SANGER: Inhibition of human SCH cell growth in a cell viability assay.

NB6 = format: functional, cell-based, Homo sapiens; details: Homo sapiens, NB6
Description: SANGER: Inhibition of human NB6 cell growth in a cell viability assay.

TE-6 = format: functional, cell-based, Homo sapiens; details: Homo sapiens, TE-6;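 also: growth inhibition of TE-6 cells, read out with a cell viability assay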
Description: SANGER: Inhibition of human TE-6 cell growth in a cell viability assay.

SNU-C2B = format: functional, cell-based; details: Homo sapiens;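 also: cell viability readout used to measure compound-driven suppression of SNU-C2B cell proliferation, IC50 marking half-maximal growth inhibition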
Description: SANGER: Inhibition of human SNU-C2B cell growth in a cell viability assay.

NCI-H1299 = format: functional, cell-based; details: Homo sapiens;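 also: growth inhibition of human NCI-H1299 cells, read out by a cell viability assay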
Description: SANGER: Inhibition of human NCI-H1299 cell growth in a cell viability assay.

Calu-6 = format: functional, cell-based, Homo sapiens; details: Homo sapiens, Calu-6;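 also: growth of human Calu-6 cells, read out by a cell viability assay, IC50 marking inhibition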
Description: SANGER: Inhibition of human Calu-6 cell growth in a cell viability assay.

COLO-320-HSR = format: functional, cell-based, Homo sapiens; details: Homo sapiens, COLO-320-HSR;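 also: growth inhibition of COLO-320-HSR cells, determined with a cell viability assay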
Description: SANGER: Inhibition of human COLO-320-HSR cell growth in a cell viability assay.

TE-11 = format: functional, cell-based; details: Homo sapiens;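 also: growth inhibition of human TE-11 cells, read out by a cell viability assay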
Description: SANGER: Inhibition of human TE-11 cell growth in a cell viability assay.

ES3 = format: functional, cell-based, Homo sapiens; details: Homo sapiens, ES3;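 also: growth inhibition of ES3 cells, read out with a cell viability assay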
Description: SANGER: Inhibition of human ES3 cell growth in a cell viability assay.

TE-1 = format: functional, cell-based, Homo sapiens; details: Homo sapiens, TE-1
Description: SANGER: Inhibition of human TE-1 cell growth in a cell viability assay.

LB2241-RCC = format: functional, cell-based, Homo sapiens; details: Homo sapiens, LB2241-RCC;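 also: cell viability assay measuring how strongly the cultured human renal carcinoma line is prevented from growing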
Description: SANGER: Inhibition of human LB2241-RCC cell growth in a cell viability assay.

EOL1 = format: functional, cell-based, Homo sapiens; details: Homo sapiens, EOL1;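 also: growth inhibition of EoL-1 cells, read out by a cell viability assay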
Description: SANGER: Inhibition of human EoL-1-cell cell growth in a cell viability assay.

NCI-N87 = format: functional, cell-based; details: Homo sapiens;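 also: growth inhibition of human NCI-N87 cells, read out with a cell viability assay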
Description: SANGER: Inhibition of human NCI-N87 cell growth in a cell viability assay.

COR-L88 = format: functional, cell-based, Homo sapiens; details: Homo sapiens, COR-L88;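 also: growth inhibition of COR-L88 cells, read out with a cell viability assay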
Description: SANGER: Inhibition of human COR-L88 cell growth in a cell viability assay.

LS-411N = format: functional, cell-based, Homo sapiens; details: Homo sapiens, LS-411N
NB13 = format: functional, cell-based, Homo sapiens; details: Homo sapiens, NB13;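 also: cell viability readout measuring growth inhibition of human NB13 cells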
Description: SANGER: Inhibition of human NB13 cell growth in a cell viability assay.

L-428 = format: functional, cell-based, Homo sapiens; details: Homo sapiens, L-428
Description: SANGER: Inhibition of human L-428 cell growth in a cell viability assay.

SW 954 = format: functional, cell-based, Homo sapiens; details: Homo sapiens, SW 954;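 also: growth inhibition of SW954 human cancer cells, read out as cell viability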
Description: SANGER: Inhibition of human SW954 cell growth in a cell viability assay.

NCI-H1155 = format: functional, cell-based, Homo sapiens; details: Homo sapiens, NCI-H1155;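 also: cell growth inhibition measured by a viability assay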
Description: SANGER: Inhibition of human NCI-H1155 cell growth in a cell viability assay.

LB771-HNC = format: functional, cell-based; details: Homo sapiens;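 also: growth inhibition of LB771-HNC human cells, read out with a cell viability assay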
Description: SANGER: Inhibition of human LB771-HNC cell growth in a cell viability assay.

KU812 cell line = format: functional, cell-based, Homo sapiens; details: Homo sapiens, KU812;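 also: growth inhibition of KU812 cells, read out with a cell viability assay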
Description: SANGER: Inhibition of human KU812 cell growth in a cell viability assay.

BT-474 = format: functional, cell-based, Homo sapiens; details: Homo sapiens, BT-474
Description: SANGER: Inhibition of human BT-474 cell growth in a cell viability assay.

C8166 = format: functional, cell-based, Homo sapiens; details: Homo sapiens, C8166;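 also: growth inhibition of human C8166 cells measured by a cell viability assay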
Description: SANGER: Inhibition of human C8166 cell growth in a cell viability assay.

RS4-11 = format: functional, cell-based, Homo sapiens; details: Homo sapiens, RS4-11;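 also: growth inhibition of RS4-11 cells, read out by a cell viability assay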
Description: SANGER: Inhibition of human RS4-11 cell growth in a cell viability assay.

SW684 = format: functional, cell-based, Homo sapiens; details: Homo sapiens, SW684; read-out: IC50;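 also: growth inhibition of human SW684 cells, measured by a cell viability assay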
Description: SANGER: Inhibition of human SW684 cell growth in a cell viability assay.

K562 = format: functional, cell-based, Homo sapiens; details: Homo sapiens, K562
Description: SANGER: Inhibition of human K-562 cell growth in a cell viability assay.

JVM-3 = format: functional, cell-based, Homo sapiens; details: Homo sapiens, JVM-3;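 also: growth inhibition of human JVM-3 cells, read out with a cell viability assay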
Description: SANGER: Inhibition of human JVM-3 cell growth in a cell viability assay.

COLO-668 = format: functional, cell-based, Homo sapiens; details: Homo sapiens, COLO-668
Description: SANGER: Inhibition of human COLO-668 cell growth in a cell viability assay.

SK-MEL-2 = format: functional, cell-based, Homo sapiens; details: Homo sapiens, SK-MEL-2;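 also: growth inhibition of human SK-MEL-2 cells measured with a cell viability assay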
Description: SANGER: Inhibition of human SK-MEL-2 cell growth in a cell viability assay.

NKM-1 = format: functional, cell-based, Homo sapiens; details: Homo sapiens, NKM-1;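 also: growth inhibition of NKM-1 cells, read out with a cell viability assay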
Description: SANGER: Inhibition of human NKM-1 cell growth in a cell viability assay.

NOMO-1 = format: functional, cell-based, Homo sapiens; details: Homo sapiens, NOMO-1;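 also: growth inhibition of human NOMO-1 cells measured by a cell viability assay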
Description: SANGER: Inhibition of human NOMO-1 cell growth in a cell viability assay.

MN-60 = format: functional, cell-based, Homo sapiens; details: Homo sapiens, MN-60;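 also: growth inhibition of the MN-60 cell line, determined with a cell viability assay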
Description: SANGER: Inhibition of human MN-60 cell growth in a cell viability assay.

DB = format: functional, cell-based, Homo sapiens; details: Homo sapiens, DB
Description: SANGER: Inhibition of human DB cell growth in a cell viability assay.

MZ2-MEL = format: functional, cell-based, Homo sapiens; details: Homo sapiens, MZ2-MEL;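 also: growth inhibition of MZ2-MEL cells read out with a cell viability assay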
Description: SANGER: Inhibition of human MZ2-MEL cell growth in a cell viability assay.

MOLT-16 = format: functional, cell-based, Homo sapiens; details: Homo sapiens, MOLT-16;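 also: growth inhibition of human MOLT-16 cells, read out with a cell viability assay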
Description: SANGER: Inhibition of human MOLT-16 cell growth in a cell viability assay.

SMILES: Cc1ccc(-n2nc(C(C)(C)C)cc2NC(=O)Nc2ccc(OCCN3CCOCC3)c3ccccc23)cc1 [DORAMAPIMOD]
- IC50 (OMC-1): > 10 µM
- IC50 (NCI-H1304): > 10 µM
- IC50 (ES5): > 10 µM
- IC50 (NCI-H2126): > 10 µM
- IC50 (RH-1): > 10 µM
- IC50 (MS-1): > 10 µM
- IC50 (KM-H2): > 10 µM
- IC50 (SNU-5): > 10 µM
- IC50 (HCC2218): > 10 µM
- IC50 (Becker): > 10 µM
- IC50 (CTV-1): > 10 µM
- IC50 (NB69): > 10 µM
- IC50 (NCI-H1648): > 10 µM
- IC50 (COLO-824): > 10 µM
- IC50 (ALL-PO): > 10 µM
- IC50 (SCH): > 10 µM
- IC50 (NB6): > 10 µM
- IC50 (TE-6): > 10 µM
- IC50 (SNU-C2B): > 10 µM
- IC50 (NCI-H1299): > 10 µM
- IC50 (Calu-6): > 10 µM
- IC50 (COLO-320-HSR): > 10 µM
- IC50 (TE-11): > 10 µM
- IC50 (ES3): > 10 µM
- IC50 (TE-1): > 10 µM
- IC50 (LB2241-RCC): > 10 µM
- IC50 (EOL1): 0.348 µM
- IC50 (NCI-N87): > 10 µM
- IC50 (COR-L88): > 10 µM
- IC50 (LS-411N): > 10 µM
- IC50 (NB13): > 10 µM
- IC50 (L-428): > 10 µM
- IC50 (SW 954): > 10 µM
- IC50 (NCI-H1155): > 10 µM
- IC50 (LB771-HNC): > 10 µM
- IC50 (KU812 cell line): > 10 µM
- IC50 (BT-474): > 10 µM
- IC50 (C8166): > 10 µM
- IC50 (RS4-11): > 10 µM
- IC50 (SW684): > 10 µM
- IC50 (K562): > 10 µM
- IC50 (JVM-3): > 10 µM
- IC50 (COLO-668): > 10 µM
- IC50 (SK-MEL-2): > 10 µM
- IC50 (NKM-1): > 10 µM
- IC50 (NOMO-1): > 10 µM
- IC50 (MN-60): > 10 µM
- IC50 (DB): > 10 µM
- IC50 (MZ2-MEL): > 10 µM
- IC50 (MOLT-16): > 10 µM

SMILES: COc1ccc(-c2cc3nccn3c(Nc3ncccc3C(N)=O)n2)cc1OC
- IC50 (OMC-1): > 8 µM
- IC50 (NCI-H1304): > 8 µM
- IC50 (ES5): > 8 µM
- IC50 (NCI-H2126): > 8 µM
- IC50 (RH-1): 4.67 µM
- IC50 (MS-1): 7.7 µM
- IC50 (KM-H2): > 8 µM
- IC50 (SNU-5): > 8 µM
- IC50 (HCC2218): > 8 µM
- IC50 (Becker): > 8 µM
- IC50 (CTV-1): 1.5 µM
- IC50 (NB69): > 8 µM
- IC50 (NCI-H1648): > 8 µM
- IC50 (COLO-824): > 8 µM
- IC50 (ALL-PO): 0.557 µM
- IC50 (SCH): > 8 µM
- IC50 (NB6): > 8 µM
- IC50 (TE-6): 6.97 µM
- IC50 (SNU-C2B): 1.84 µM
- IC50 (NCI-H1299): > 8 µM
- IC50 (Calu-6): 6.87 µM
- IC50 (COLO-320-HSR): 2.9 µM
- IC50 (TE-11): > 8 µM
- IC50 (ES3): 3.03 µM
- IC50 (TE-1): > 8 µM
- IC50 (LB2241-RCC): 4.93 µM
- IC50 (EOL1): 0.333 µM
- IC50 (NCI-N87): > 8 µM
- IC50 (COR-L88): > 8 µM
- IC50 (LS-411N): 3.78 µM
- IC50 (NB13): 3.24 µM
- IC50 (L-428): > 8 µM
- IC50 (SW 954): > 8 µM
- IC50 (NCI-H1155): > 8 µM
- IC50 (LB771-HNC): > 8 µM
- IC50 (KU812 cell line): 4.24 µM
- IC50 (BT-474): > 8 µM
- IC50 (C8166): 2.2 µM
- IC50 (RS4-11): 1.23 µM
- IC50 (SW684): > 8 µM
- IC50 (K562): > 8 µM
- IC50 (JVM-3): > 8 µM
- IC50 (COLO-668): > 8 µM
- IC50 (SK-MEL-2): 1.89 µM
- IC50 (NKM-1): 1.06 µM
- IC50 (NOMO-1): 7.38 µM
- IC50 (MN-60): > 8 µM
- IC50 (DB): 6.64 µM
- IC50 (MZ2-MEL): 3.48 µM
- IC50 (MOLT-16): 0.571 µM
